This assay concerns TEAD-dependent transcription. In words: TEAD-dependent transcription cell-based reporter assay (MSTO-211H+12XGTIIC luciferase). Set-up: species or system human. The conditions noted are these: Homo sapiens; MSTO-211H+12XGTIIC cell line, luciferase signal normalized to cell viability, 24 hours compound incubation; read-out: MSTO-211H GMean IC50 (uM) Cell Assay Reporter Cell Variant: TEAD. In outline:
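MSTO-211H mesothelioma cells stably carrying a 12xGTIIC TEAD-response-element luciferase reporter, treated with serial compound dilutions for 24 h at 37 °C. Luminescence normalized to CellTiter-Fluor viability signal; % inhibition versus DMSO and 20 μM K-975 controls, IC50 by nonlinear regression.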
A general note: A reporter such as luciferase makes a cellular process visible.
As to `O=C(Cc1cn[nH]c1O)N1CCc2c(cccc2Oc2ccc(C(F)(F)F)cc2)C1` [P-0252, 2-(5-hydroxy-1H-pyr-azol-4-yl)-1-(5-(4-(trifluoromethyl)phen-oxy)-3,4-dihydroisoquin-olin-2(1H)-yl)ethan-1-one], the IC50 lay within 0.001 to 10 µM. Regarding `C=CC(=O)N1CCC(C(=O)N2CCc3c(cccc3Oc3ccc(C(F)(F)F)cc3)C2)C1` (centres unmarked) [P-0253, 1-(3-(5-(4-(trifluorometh-yl)phenoxy)-1,2,3,4-tetrahydroisoquinoline-2-carbonyl)pyrrolidin-1-yl)prop-2-en-1-one], the 50% inhibitory concentration (IC50) was 0.001 to 10 µM. With `O=C(CCS(=O)(=O)C(F)(F)F)N1CCc2c(cccc2Oc2ccc(C(F)(F)F)cc2)C1` [P-0254, 1-(5-(4-(trifluorometh-yl)phenoxy)-3,4-dihydro-isoquinolin-2(1H)-yl)-3-((trifluoromethyl)sul-fonyl)propan-1-one], the IC50 was 0.001 to 10 µM. As for `C=CC(=O)N1CC(C(=O)N2CCc3c(cccc3Oc3ccc(C(F)(F)F)cc3)C2)C1` [P-0255, 1-(3-(5-(4-(trifluorometh-yl)phenoxy)-1,2,3,4-tetrahydroisoquinoline-2-carbonyl)azetidin-1-yl)prop-2-en-1-one], the figure is 0.001 to 10 µM; as for `NC(=O)N1CCC(C(=O)N2CCc3c(cccc3Oc3ccc(C(F)(F)F)cc3)C2)C1` (centres unmarked) [P-0256, 3-(5-(4-(trifluorometh-yl)phenoxy)-1,2,3,4-tetrahydroisoquinoline-2-carbonyl)pyrrolidine-1-carboxamide], 0.001 to 10 µM. As to `CN(C)CCCC(=O)N1CCc2c(cccc2Oc2ccc(C(F)(F)F)cc2)C1` [P-0263, 4-(dimethylamino)-1-(5-(4-(trifluoromethyl)phen-oxy)-3,4-dihydroisoquin-olin-2(1H)-yl)butan-1-one], the IC50 lay within 0.001 to 10 µM. In the case of `CC(C)(O)CC(=O)N1CCc2c(cccc2Oc2ccc(C(F)(F)F)cc2)C1` [P-0264, 3-hydroxy-3-methyl-1-(5-(4-(trifluoromethyl)-phenoxy)-3,4-dihydroiso-quinolin-2(1H)-yl)butan-1-one], the IC50 lay in the range of 0.001 to 10 µM. For the compound `C[C@H](NC(=O)N1CCc2c(cccc2Oc2ccc(C(F)(F)F)cc2)C1)C1CC1` [P-0265, (S)-N-(1-cyclopropyl-ethyl)-5-(4-(trifluoro-methyl)phenoxy)-3,4-dihydroisoquinoline-2(1H)-carboxamide], the IC50 is 0.001 to 10 µM.

Consider `COCC(C)NC(=O)N1CCc2c(cccc2Oc2ccc(C(F)(F)F)cc2)C1` (centres unmarked) [P-0266, N-(1-methoxypropan-2-yl)-5-(4-(trifluorometh-yl)phenoxy)-3,4-dihydro-isoquinoline-2(1H)-carboxamide], for which the IC50 lay in the range of 0.001 to 10 µM. For the compound `O=C(CC1CCCCC1)N1CCc2c(cccc2Oc2ccc(C(F)(F)F)cc2)C1` [P-0267, 2-cyclohexyl-1-(5-(4-(trifluoromethyl)phen-oxy)-3,4-dihydroisoquin-olin-2(1H)-yl)ethan-1-one], the IC50 lay within 10 to 100 µM. For the compound `C[C@@H](CO)NC(=O)N1CCc2c(cccc2Oc2ccc(C(F)(F)F)cc2)C1` [P-0268, (S)-N-(1-hydroxypropan-2-yl)-5-(4-(trifluorometh-yl)phenoxy)-3,4-dihydro-isoquinoline-2(1H)-carboxamide], the IC50 is 0.001 to 10 µM. For the compound `CS(=O)(=O)CCC(=O)N1CCc2c(cccc2Oc2ccc(C(F)(F)F)cc2)C1` [P-0269, 3-(methylsulfonyl)-1-(5-(4-(trifluoromethyl)phen-oxy)-3,4-dihydroisoquin-olin-2(1H)-yl)propan-1-one], the IC50 fell in the range of 0.001 to 10 µM. The value for `NC(=O)NCC(=O)N1CCc2c(cccc2Oc2ccc(C(F)(F)F)cc2)C1` [P-0270, 1-(2-oxo-2-(5-(4-(trifluoromethyl)phen-oxy)-3,4-dihydroisoquin-olin-2(1H)-yl)ethyl)urea] was 0.001 to 10 µM; that for `CS(=O)(=O)CCC(=O)N1CCc2c(cccc2-c2ccc(C(F)(F)F)cc2)C1` [P-0271, 3-(methylsulfonyl)-1-(5-(4-(trifluoromethyl)phen-yl)-3,4-dihydroisoquin-olin-2(1H)-yl)propan-1-one] was 0.001 to 10 µM; that for `NC(=O)NCC(=O)N1CCc2c(cccc2-c2ccc(C(F)(F)F)cc2)C1` [P-0272, 1-(2-oxo-2-(5-(4-(trifluoromethyl)phen-yl)-3,4-dihydroisoquin-olin-2(1H)-yl)ethyl)urea] was 0.001 to 10 µM.

Turning to `N#CCCC(=O)N1CCc2c(cccc2-c2ccc(C(F)(F)F)cc2)C1` [P-0273, 4-oxo-4-(5-(4-(trifluoromethyl)phenyl)-3,4-dihydroisoquinolin-2(1H)-yl)butanenitrile], the IC50 fell in the range of 0.001 to 10 µM.

As for `Nc1nc(C(=O)N2CCc3c(cccc3-c3ccc(C(F)(F)F)cc3)C2)cs1` [P-0274], the half-maximal inhibitory concentration (IC50) was in the range of 0.001 to 10 µM.

As to `O=C(Cc1cnc[nH]1)N1CCc2c(cccc2-c2ccc(C(F)(F)F)cc2)C1` [P-0275, 2-(1H-imidazol-5-yl)-1-(5-(4-(trifluoromethyl)-phenyl)-3,4-dihydroiso-quinolin-2(1H)-yl)ethan-1-one], the IC50 lay within 0.001 to 10 µM. For `CS(=O)(=O)CCNC(=O)N1CCc2c(cccc2-c2ccc(C(F)(F)F)cc2)C1` [P-0276, N-(2-(methylsulfonyl)-ethyl)-5-(4-(trifluoro-methyl)phenyl)-3,4-dihydroisoquinoline-2(1H)-carboxamide], the IC50 was in the range of 0.001 to 10 µM.

Take `CS(=O)(=O)CCC(=O)N1CCc2ccc(-c3ccc(OC(F)(F)F)cc3)cc2C1` [P-0277, 3-(methylsulfonyl)-1-(7-(4-(trifluoromethoxy)phenyl)-3,4-dihydroisoquinolin-2(1H)-yl)propan-1-one]: the IC50 is 10 to 100 µM.

A word on the IC50: it is the concentration that gives 50% inhibition.

The values above are taken from patent publication US20250129028A1, “COMPOUNDS AND METHODS FOR YAP/TEAD MODULATION AND INDICATIONS THEREFOR” (Opna Bio SA, priority 2022, published 2025).
